Measurements: the NIST ThermoML archive (doi:10.1016/j.jct.2008.09.002)

What was measured:
[1] = molar heat capacity at constant pressure; xn = mol fraction of the nth substance listed; details: 101.3 kPa, Liquid, Small sample (50 mg) DSC
[2] = xn = mol fraction of the nth substance listed; details: 101.3 kPa, Liquid, Vibrating tube method

C[N+](=O)[O-] [nitromethane] + CCCCn1cc[n+](C)c1.F[B-](F)(F)F
Details	mass density [kg/m3]	molar heat capacity at constant pressure [J/K/mol]
[1], 293.15 K, x2 = 0.0525	–	119.2
[1], 293.15 K, x2 = 0.1029	–	131.6
[1], 293.15 K, x2 = 0.1943	–	154.9
[1], 293.15 K, x2 = 0.2941	–	180.5
[1], 293.15 K, x2 = 0.3911	–	205.4
[1], 293.15 K, x2 = 0.5609	–	248.8
[1], 293.15 K, x2 = 0.7062	–	285.8
[1], 293.15 K, x2 = 0.7578	–	299
[1], 293.15 K, x2 = 0.897	–	334.5
[1], 293.15 K, x2 = 0.9436	–	346.4
[1], 293.15 K, x2 = 0.9716	–	353.6
[1], 298.15 K, x2 = 0.0525	–	119.6
[1], 298.15 K, x2 = 0.1029	–	132.1
[1], 298.15 K, x2 = 0.1943	–	155.6
[1], 298.15 K, x2 = 0.2941	–	181.5
[1], 298.15 K, x2 = 0.3911	–	206.7
[1], 298.15 K, x2 = 0.5609	–	250.6
[1], 298.15 K, x2 = 0.7062	–	288.1
[1], 298.15 K, x2 = 0.7578	–	301.4
[1], 298.15 K, x2 = 0.897	–	337.4
[1], 298.15 K, x2 = 0.9436	–	349.5
[1], 298.15 K, x2 = 0.9716	–	356.7
[1], 303.15 K, x2 = 0.0525	–	120
[1], 303.15 K, x2 = 0.1029	–	132.7
[1], 303.15 K, x2 = 0.1943	–	156.4
[1], 303.15 K, x2 = 0.2941	–	182.5
[1], 303.15 K, x2 = 0.3911	–	208
[1], 303.15 K, x2 = 0.5609	–	252.3
[1], 303.15 K, x2 = 0.7062	–	290.2
[1], 303.15 K, x2 = 0.7578	–	303.7
[1], 303.15 K, x2 = 0.897	–	340
[1], 303.15 K, x2 = 0.9436	–	352.3
[1], 303.15 K, x2 = 0.9716	–	359.5
[1], 308.15 K, x2 = 0.0525	–	120.5
[1], 308.15 K, x2 = 0.1029	–	133.3
[1], 308.15 K, x2 = 0.1943	–	157.1
[1], 308.15 K, x2 = 0.2941	–	183.3
[1], 308.15 K, x2 = 0.3911	–	209.1
[1], 308.15 K, x2 = 0.5609	–	253.8
[1], 308.15 K, x2 = 0.7062	–	292.1
[1], 308.15 K, x2 = 0.7578	–	305.6
[1], 308.15 K, x2 = 0.897	–	342.3
[1], 308.15 K, x2 = 0.9436	–	354.7
[1], 308.15 K, x2 = 0.9716	–	362
[1], 313.15 K, x2 = 0.0525	–	121
[1], 313.15 K, x2 = 0.1029	–	133.9
[1], 313.15 K, x2 = 0.1943	–	157.8
[1], 313.15 K, x2 = 0.2941	–	184.1
[1], 313.15 K, x2 = 0.3911	–	210.1
[1], 313.15 K, x2 = 0.5609	–	255.1
[1], 313.15 K, x2 = 0.7062	–	293.7
[1], 313.15 K, x2 = 0.7578	–	307.3
[1], 313.15 K, x2 = 0.897	–	344.2
[1], 313.15 K, x2 = 0.9436	–	356.8
[1], 313.15 K, x2 = 0.9716	–	364.1
[1], 318.15 K, x2 = 0.0525	–	121.4
[1], 318.15 K, x2 = 0.1029	–	134.3
[1], 318.15 K, x2 = 0.1943	–	158.3
[1], 318.15 K, x2 = 0.2941	–	184.7
[1], 318.15 K, x2 = 0.3911	–	210.9
[1], 318.15 K, x2 = 0.5609	–	256.2
[1], 318.15 K, x2 = 0.7062	–	295.1
[1], 318.15 K, x2 = 0.7578	–	308.7
[1], 318.15 K, x2 = 0.897	–	345.9
[1], 318.15 K, x2 = 0.9436	–	358.5
[1], 318.15 K, x2 = 0.9716	–	365.8
[2], 293.15 K, x2 = 0.1007	1167	–
[2], 293.15 K, x2 = 0.2066	1181.1	–
[2], 293.15 K, x2 = 0.2597	1185.9	–
[2], 293.15 K, x2 = 0.3069	1189.3	–
[2], 293.15 K, x2 = 0.3957	1194.4	–
[2], 293.15 K, x2 = 0.41	1195	–
[2], 293.15 K, x2 = 0.4866	1198.1	–
[2], 293.15 K, x2 = 0.5058	1198.7	–
[2], 293.15 K, x2 = 0.6016	1201.5	–
[2], 293.15 K, x2 = 0.6455	1202.6	–
[2], 293.15 K, x2 = 0.6837	1203.4	–
[2], 293.15 K, x2 = 0.7793	1205.1	–
[2], 293.15 K, x2 = 0.8867	1206.5	–
[2], 298.15 K, x2 = 0.1007	1161.3	–
[2], 298.15 K, x2 = 0.2066	1176.1	–
[2], 298.15 K, x2 = 0.2597	1181.1	–
[2], 298.15 K, x2 = 0.3069	1184.7	–
[2], 298.15 K, x2 = 0.3957	1190	–
[2], 298.15 K, x2 = 0.41	1190.6	–
[2], 298.15 K, x2 = 0.4866	1193.9	–
[2], 298.15 K, x2 = 0.5058	1194.6	–
[2], 298.15 K, x2 = 0.6016	1197.5	–
[2], 298.15 K, x2 = 0.6455	1198.6	–
[2], 298.15 K, x2 = 0.6837	1199.5	–
[2], 298.15 K, x2 = 0.7793	1201.3	–
[2], 298.15 K, x2 = 0.8867	1202.9	–
[2], 303.15 K, x2 = 0.1007	1155.7	–
[2], 303.15 K, x2 = 0.2066	1171.1	–
[2], 303.15 K, x2 = 0.2597	1176.4	–
[2], 303.15 K, x2 = 0.3069	1180.1	–
[2], 303.15 K, x2 = 0.3957	1185.6	–
[2], 303.15 K, x2 = 0.41	1186.3	–
[2], 303.15 K, x2 = 0.4866	1189.7	–
[2], 303.15 K, x2 = 0.5058	1190.4	–
[2], 303.15 K, x2 = 0.6016	1193.5	–
[2], 303.15 K, x2 = 0.6455	1194.7	–
[2], 303.15 K, x2 = 0.6837	1195.6	–
[2], 303.15 K, x2 = 0.7793	1197.5	–
[2], 303.15 K, x2 = 0.8867	1199.2	–
[2], 308.15 K, x2 = 0.1007	1150	–
[2], 308.15 K, x2 = 0.2066	1166	–
[2], 308.15 K, x2 = 0.2597	1171.5	–
[2], 308.15 K, x2 = 0.3069	1175.4	–
[2], 308.15 K, x2 = 0.3957	1181.2	–
[2], 308.15 K, x2 = 0.41	1181.9	–
[2], 308.15 K, x2 = 0.4866	1185.5	–
[2], 308.15 K, x2 = 0.5058	1186.3	–
[2], 308.15 K, x2 = 0.6016	1189.5	–
[2], 308.15 K, x2 = 0.6455	1190.8	–
[2], 308.15 K, x2 = 0.6837	1191.7	–
[2], 308.15 K, x2 = 0.7793	1193.7	–
[2], 308.15 K, x2 = 0.8867	1195.6	–
[2], 313.15 K, x2 = 0.1007	1144.4	–
[2], 313.15 K, x2 = 0.2066	1161.1	–
[2], 313.15 K, x2 = 0.2597	1166.8	–
[2], 313.15 K, x2 = 0.3069	1170.9	–
[2], 313.15 K, x2 = 0.3957	1176.9	–
[2], 313.15 K, x2 = 0.41	1177.6	–
[2], 313.15 K, x2 = 0.4866	1181.4	–
[2], 313.15 K, x2 = 0.5058	1182.2	–
[2], 313.15 K, x2 = 0.6016	1185.5	–
[2], 313.15 K, x2 = 0.6455	1186.9	–
[2], 313.15 K, x2 = 0.6837	1187.9	–
[2], 313.15 K, x2 = 0.7793	1190	–
[2], 313.15 K, x2 = 0.8867	1191.9	–
[2], 318.15 K, x2 = 0.1007	1138.7	–
[2], 318.15 K, x2 = 0.2066	1156.1	–
[2], 318.15 K, x2 = 0.2597	1162.1	–
[2], 318.15 K, x2 = 0.3069	1166.3	–
[2], 318.15 K, x2 = 0.3957	1172.5	–
[2], 318.15 K, x2 = 0.41	1173.3	–
[2], 318.15 K, x2 = 0.4866	1177.2	–
[2], 318.15 K, x2 = 0.5058	1178	–
[2], 318.15 K, x2 = 0.6016	1181.6	–
[2], 318.15 K, x2 = 0.6455	1183	–
[2], 318.15 K, x2 = 0.6837	1184	–
[2], 318.15 K, x2 = 0.7793	1186.3	–
[2], 318.15 K, x2 = 0.8867	1188.3	–
